Consider 40 molecules from patent US20070238700A1, “N-PHENYL-1,1,1-TRIFLUOROMETHANESULFONAMIDE HYDRAZONE DERIVATIVE COMPOUNDS AND THEIR USAGE IN CONTROLLING PARASITES” (priority 2006, published 2007).

Each structure is given as a SMILES string. Read-outs that look alike come from different tables or passages of the source.

The data set has as its system Ctenocephalides felis. How it is done:
b) Ctenocephalides felis Adulticide Assay: C. felis Single Dose Screen
Mortality of fleas was the primary endpoint in the assay. Fleas were considered dead if they didn't move or were on their sides and unable to walk or right themselves. […] The concentration chosen (1.26 μg/cm^2) was higher than that known to kill 90% of cat fleas (LC90) using the reference compound, permethrin.
The test species was the cat flea (Ctenocephalides felis). The strain used was obtained from external suppliers as pupae and held in the laboratory under testing conditions until the adults had emerged. Fifteen (15) fleas were used in a minimum of four replicates against a single concentration level (approximately 60 fleas). The insects were selected to be in the adult life stage, aged between 3 and 7 days post emergence.
The compounds to be tested were supplied as solids and were prepared in acetone as described below prior to testing. Samples were stored in a refrigerator (5±1° C.) unless otherwise specified.
During the mortality testing, the temperature was maintained at 25±1° C. Humidity was maintained at 75±5%. The base (area=159 mm^2) of a 100 mL glass Erlenmeyer (conical) flask provided the treatment surface. Flasks were pretreated with Coatasil™ glass treatment to maximise bio-availability of test compounds by preventing them from binding to glass the surface. The base of the 100 mL Erlenmeyer flask was treated with 0.5 mL of test sample in acetone and gently swirled. This volume was sufficient to cover the base of the flask. Flasks were left to dry for 24 hours before flea exposure.
Adult cat fleas were placed into a sorting chamber, which allowed fleas to jump into the Erlenmeyer flasks. Fifteen (15) adult cat fleas were collected in each flask. The top of the flasks were then covered in Parafilm™ and small holes were made to allow gas exchange. A 0.5 mL volume of acetone as a solvent control was applied to the base of an Erlenmeyer flask and the testing proceeded in the same manner described above. Cat fleas in the treatment containers were held under testing conditions for 8, 24 and/or 48 hours. Mortality was recorded at 8, 24, 8 and 24, or 24 and 48 hours Pooled 8, 24, 8 and 24, and 24 and 48 hour mortality data were converted to percentages and are summarized by Table 21, below.

On to `Cn1nccc1-c1cc(Cl)ccc1NS(=O)(=O)C(F)(F)F` (single isomer, unassigned) [Compound 93, N-[2-(1-methyl-1H-pyrazol-5-yl)-4-chlorophenyl]-trifluoromethanesulfonamide], for which, for the setting “8 h”, the “C. felis Mortality (%) 8 h” value is given as 5%. Also, the “C. felis Mortality (%) 24 h” value (24 h) is 9%. As to `CN(N=C(c1ccccc1)c1cc(Cl)ccc1NS(=O)(=O)C(F)(F)F)c1ccccc1` (single isomer, unassigned) [Compound 117], the “C. felis Mortality (%) 8 h” value (8 h, data from laboratory 1) is reported as 12%. In addition, the “C. felis Mortality (%) 24 h” value (24 h, data from laboratory 1) came out at 59%.

Regarding `CN(N=C(c1ccccc1)c1cc(Cl)ccc1NS(=O)(=O)C(F)(F)F)c1ccccc1` (single isomer, unassigned) [Compound 118], the “C. felis Mortality (%) 8 h” value (8 h, data from laboratory 1) was 6%. Besides, the “C. felis Mortality (%) 24 h” value (24 h, data from laboratory 1) was 27%.

With `CC(=NNc1ccccc1)c1cc(Cl)ccc1NS(=O)(=O)C(F)(F)F` [Compound 12, N-[2-(1-phenylhydrazono)ethyl-4-chlorophenyl]-trifluoromethanesulfonamide], the “C. felis Mortality (%) 8 h” value is on record as 20^B %. For `CC(=NN(C)c1ccc(Cl)cc1Cl)c1cc(Cl)ccc1N(C)S(=O)(=O)C(F)(F)F` [Compound 29], the “C. felis Mortality (%) 24 h” value (24 h, data from laboratory 1) is reported as 0%. Besides, for the setting “data from laboratory 1”, the “C. felis Mortality (%) 48 h” value is on record as 58%. Regarding `CCCN(N=C(C)c1cc(Cl)ccc1NS(=O)(=O)C(F)(F)F)c1ccc(Cl)cc1Cl` [Compound 31], the “C. felis Mortality (%) 24 h” value (24 h, data from laboratory 1) is 85%. Further, the “C. felis Mortality (%) 48 h” value (data from laboratory 1) is recorded as 100%. `CC(=NN(c1ccc(Cl)cc1Cl)C(C)C)c1cc(Cl)ccc1NS(=O)(=O)C(F)(F)F` [Compound 32]: the “C. felis Mortality (%) 24 h” value (24 h, data from laboratory 1) is recorded as 41%. Also, the “C. felis Mortality (%) 48 h” value (data from laboratory 1) worked out at 100%.

For the molecule `CC(=NN(C)c1ccccc1Cl)c1cc(Cl)ccc1N(C)S(=O)(=O)C(F)(F)F` [Compound 40], for the setting “24 h, data from laboratory 1”, the “C. felis Mortality (%) 24 h” value was found to be 0%. The “C. felis Mortality (%) 48 h” value (data from laboratory 1) is listed as 13%.

`CCCN(N=C(C)c1cc(Cl)ccc1NS(=O)(=O)C(F)(F)F)c1ccccc1Cl` [Compound 42]: for the setting “24 h, data from laboratory 1”, the “C. felis Mortality (%) 24 h” value is 67%. Further, the “C. felis Mortality (%) 48 h” value (data from laboratory 1) is 100%. For `CCCN(N=C(C)c1cc(Cl)ccc1NS(=O)(=O)C(F)(F)F)c1ccccc1F` [Compound 45], in that order: 27% and 100%. For the molecule `CC(=NN(c1ccccc1F)C(C)C)c1cc(Cl)ccc1NS(=O)(=O)C(F)(F)F` [Compound 46], the “C. felis Mortality (%) 8 h” value (8 h, data from laboratory 1) is given as 44%. For the same molecule, under “24 h, data from laboratory 1”, the “C. felis Mortality (%) 24 h” value is 100%. Regarding `CC(=NN(c1ccc(Br)cc1)C(C)C)c1cc(Cl)ccc1NS(=O)(=O)C(F)(F)F` [Compound 52], the “C. felis Mortality (%) 8 h” value (8 h, data from laboratory 1) is recorded as 51%. The “C. felis Mortality (%) 24 h” value (24 h, data from laboratory 1) is recorded as 100%. On to `CC(=NNC(=O)c1ccc(Cl)cc1)c1cc(Cl)ccc1NS(=O)(=O)C(F)(F)F` [Compound 57, N-[2-[1-(4-chlorobenzoyl)hydrazono]ethyl-4-chlorophenyl]-trifluoromethanesulfonamide], for which the “C. felis Mortality (%) 8 h” value is listed as 6% and the “C. felis Mortality (%) 24 h” value came to 70%. As for `CC(=NNC(=O)c1ccccc1Cl)c1cc(Cl)ccc1NS(=O)(=O)C(F)(F)F` [Compound 58], for the setting “8 h, data from laboratory 1”, the “C. felis Mortality (%) 8 h” value worked out at 2%. In addition, where the note is “24 h, data from laboratory 1”, the “C. felis Mortality (%) 24 h” value was determined as 13%. For `CC(=NNC(=O)c1ccc(Cl)cc1Cl)c1cc(Cl)ccc1NS(=O)(=O)C(F)(F)F` [Compound 61], for the setting “8 h, data from laboratory 1”, the “C. felis Mortality (%) 8 h” value turned out to be 12%. Further, the “C. felis Mortality (%) 24 h” value (24 h, data from laboratory 1) is 45%. For `CC(=NN(C)c1ccc(F)cc1)c1cc(Cl)ccc1NS(=O)(=O)C(F)(F)F` [Compound 64], in that order: 1% and 50%. For `CC(=NN(c1cc(Cl)cc(Cl)c1)C(C)C)c1cc(Cl)ccc1NS(=O)(=O)C(F)(F)F` [Compound 67], in that order: 20% and 85%. For `CC(=NN(c1ccc(Cl)c(Cl)c1)C(C)C)c1cc(Cl)ccc1NS(=O)(=O)C(F)(F)F` [Compound 68], under “8 h, data from laboratory 1”, the “C. felis Mortality (%) 8 h” value is 18%. Also, the “C. felis Mortality (%) 24 h” value (24 h, data from laboratory 1) was found to be 73%. Consider `CCN(N=C(C)c1cc(Cl)ccc1NS(=O)(=O)C(F)(F)F)c1cccc(Cl)c1Cl` [Compound 69], for which the “C. felis Mortality (%) 8 h” value (8 h, data from laboratory 1) was 39%. Besides, for the setting “24 h, data from laboratory 1”, the “C. felis Mortality (%) 24 h” value was 92%.

Consider `COC(=O)NN=C(C)c1cc(Cl)ccc1NS(=O)(=O)C(F)(F)F` [Compound 78, N-[2-[1-(methoxycarbonylhydrazono)ethyl]-4-chlorophenyl]-trifluoromethanesulfonamide], for which, where the note is “8 h”, the “C. felis Mortality (%) 8 h” value was found to be 16%. Also, the “C. felis Mortality (%) 24 h” value (24 h) turned out to be 16%. In the case of `CCC(=NNC(=O)c1ccc(Cl)cc1Cl)c1cc(Cl)ccc1NS(=O)(=O)C(F)(F)F` [Compound 79], for the setting “8 h, data from laboratory 1”, the “C. felis Mortality (%) 8 h” value came out at 14%. Also, the “C. felis Mortality (%) 24 h” value (24 h, data from laboratory 1) was found to be 92%. Take `CCC(=NNC(=O)c1ccccc1Cl)c1cc(Cl)ccc1NS(=O)(=O)C(F)(F)F` [Compound 80]: the “C. felis Mortality (%) 8 h” value (8 h, data from laboratory 1) was 17%. Further, the “C. felis Mortality (%) 24 h” value (24 h, data from laboratory 1) was determined as 88%. Regarding `O=S(=O)(Nc1ccc(Cl)cc1C(=NN1CCCCC1)c1ccccc1)C(F)(F)F` [Compound 83], the “C. felis Mortality (%) 8 h” value (8 h, data from laboratory 1) is given as 15%. Besides, under “24 h, data from laboratory 1”, the “C. felis Mortality (%) 24 h” value came to 17%.

In the case of `O=S(=O)(Nc1ccc(Cl)cc1C(=NN1CCOCC1)c1ccccc1)C(F)(F)F` [Compound 84], the “C. felis Mortality (%) 8 h” value (8 h, data from laboratory 1) came to 9%. The “C. felis Mortality (%) 24 h” value (24 h, data from laboratory 1) is reported as 76%. For `CCOC(=O)NN=C(C)c1cc(Cl)ccc1NS(=O)(=O)C(F)(F)F` [Compound 85], the “C. felis Mortality (%) 8 h” value (8 h, data from laboratory 1) was 3%. Moreover, the “C. felis Mortality (%) 24 h” value (24 h, data from laboratory 1) came out at 12%. In the case of `CC(=NNC(=O)OC(C)(C)C)c1cc(Cl)ccc1NS(=O)(=O)C(F)(F)F` [Compound 86], under “8 h, data from laboratory 1”, the “C. felis Mortality (%) 8 h” value stood at 4%. For the same molecule, the “C. felis Mortality (%) 24 h” value (24 h, data from laboratory 1) was found to be 26%.

As to `CCC(=NNC(=O)OC)c1cc(Cl)ccc1NS(=O)(=O)C(F)(F)F` [Compound 87], where the note is “8 h, data from laboratory 1”, the “C. felis Mortality (%) 8 h” value came to 7%. Also, the “C. felis Mortality (%) 24 h” value (24 h, data from laboratory 1) turned out to be 12%.

In the case of `CCOC(=O)NN=C(CC)c1cc(Cl)ccc1NS(=O)(=O)C(F)(F)F` [Compound 88], the “C. felis Mortality (%) 8 h” value (8 h, data from laboratory 1) is on record as 6%. In addition, the “C. felis Mortality (%) 24 h” value (24 h, data from laboratory 1) came to 25%. For `CCC(=NNC(=O)OC(C)(C)C)c1cc(Cl)ccc1NS(=O)(=O)C(F)(F)F` [Compound 89], in that order: 6% and 43%. As for `CC(=NNC(=O)Nc1ccccc1)c1cc(Cl)ccc1NS(=O)(=O)C(F)(F)F` [Compound 90, N-[2-[1-(4-phenyl)semicarbazono]ethyl-4-chlorophenyl]-trifluoromethanesulfonamide], the “C. felis Mortality (%) 8 h” value was found to be 3% and the “C. felis Mortality (%) 24 h” value is on record as 18%. As for `CC(=NNC(=O)Nc1ccccc1Cl)c1cc(Cl)ccc1NS(=O)(=O)C(F)(F)F` [Compound 91], the “C. felis Mortality (%) 8 h” value (8 h, data from laboratory 1) was 10%. For the same molecule, the “C. felis Mortality (%) 24 h” value (24 h, data from laboratory 1) is 10%.

In the case of `CC(=NNC(=O)Nc1ccc(Cl)cc1)c1cc(Cl)ccc1NS(=O)(=O)C(F)(F)F` [Compound 92], the “C. felis Mortality (%) 8 h” value (8 h, data from laboratory 1) is 8%. In addition, the “C. felis Mortality (%) 24 h” value (24 h, data from laboratory 1) worked out at 8%.

Consider `O=S(=O)(Nc1ccc(Cl)cc1-c1ccn(-c2ccccc2)n1)C(F)(F)F` [Compound 94], for which, for the setting “8 h, data from laboratory 1”, the “C. felis Mortality (%) 8 h” value was 6%. The “C. felis Mortality (%) 24 h” value (24 h, data from laboratory 1) is reported as 8%. For `O=S(=O)(Nc1ccc(Cl)cc1-c1cc[nH]n1)C(F)(F)F` [Compound 95], in that order: 25% and 83%. For `CCN(N=C(C)c1cc(Cl)ccc1NS(=O)(=O)C(F)(F)F)c1ccc(C)cc1` [Compound 101], in that order: 11% and 90%. For `CC(=NN(c1ccc(C)cc1)C(C)C)c1cc(Cl)ccc1NS(=O)(=O)C(F)(F)F` [Compound 102], in that order: 3% and 90%. For the molecule `CCCN(N=C(C)c1cc(Cl)ccc1NS(=O)(=O)C(F)(F)F)c1cccc(Cl)c1` [Compound 106], the “C. felis Mortality (%) 8 h” value (8 h, data from laboratory 1) is 0%. In addition, the “C. felis Mortality (%) 24 h” value (24 h, data from laboratory 1) turned out to be 25%. Consider `CC(=NN1CCCCCC1)c1cc(Cl)ccc1NS(=O)(=O)C(F)(F)F` [Compound 107], for which the “C. felis Mortality (%) 8 h” value (8 h, data from laboratory 1) is listed as 2%. In addition, the “C. felis Mortality (%) 24 h” value (24 h, data from laboratory 1) came out at 23%. For the molecule `O=S(=O)(Nc1ccc(Cl)cc1-c1ccnn1-c1ccc(Cl)cc1)C(F)(F)F` [Compound 108, N-[2-(1-4′-chlorophenyl-1H-pyrazol-5-yl)-4-chlorophenyl]-trifluoromethanesulfonamide], the “C. felis Mortality (%) 8 h” value is on record as 0% and the “C. felis Mortality (%) 24 h” value came to 64%.

Regarding `COCN(c1ccc(Cl)cc1C(C)=NN(C)c1ccccc1)S(=O)(=O)C(F)(F)F` [Compound 110], for the setting “8 h, data from laboratory 1”, the “C. felis Mortality (%) 8 h” value stood at 6%. Further, the “C. felis Mortality (%) 24 h” value (24 h, data from laboratory 1) is 52%.
